The values below are quoted from earlier work in patent US8992954B2, “Compositions comprising a derivative of 5-aminolevulinic acid” (Photocure ASA, priority 2010, dated 2015).

Each structure is given as a SMILES string.

The data set relates to skin. The settings on record: Eucerin cream base with 5%, 10% and 20% by weight of ALA; occlusion 4 hours; visible light.

On to `NCC(=O)CCC(=O)O` [Composition 5-ALA, 5-amino-4-oxo-pentanoic acid], for which the Complaints during illumination entry is “All volunteers complained about burning and itching”; the Pigmentary response result is listed as “pigmentary response was observed”; the “Skin reactions after the illumination” value was “erythema and edema appeared”.
